Test results: patent US20110201656A1, “NOVEL DIPHENYL 1,2,3-TRIAZOLE DERIVATIVES USEFUL AS MODULATORS OF NICOTINIC ACETYLCHOLINE RECEPTORS” (NEUROSEARCH A/S, priority 2008, published 2011)

Columns and labels:
[1] = target: T1, wild-type nAChR α7 receptors (Homo sapiens, UniProt P36544); assay: Positive modulation of nAChR α7 currents in Xenopus laevis oocytes (two-electrode voltage clamp); type: cell-based; details: nAChR α7 expressed in Xenopus laevis oocytes, clamped at −60 mV, 100 μM acetylcholine; for Emax: (test-control)/control×100%, read-out: calculated EC50 Imax (maximal modulation of the control response); for EC50: test compound 0.01-31.6 μM, read-out: calculated EC50 (positive modulation of acetylcholine-induced current)
T1 construct: expressed in transfected cells; host or cells: Xenopus laevis oocytes
T1 sequence (P36544 23-502): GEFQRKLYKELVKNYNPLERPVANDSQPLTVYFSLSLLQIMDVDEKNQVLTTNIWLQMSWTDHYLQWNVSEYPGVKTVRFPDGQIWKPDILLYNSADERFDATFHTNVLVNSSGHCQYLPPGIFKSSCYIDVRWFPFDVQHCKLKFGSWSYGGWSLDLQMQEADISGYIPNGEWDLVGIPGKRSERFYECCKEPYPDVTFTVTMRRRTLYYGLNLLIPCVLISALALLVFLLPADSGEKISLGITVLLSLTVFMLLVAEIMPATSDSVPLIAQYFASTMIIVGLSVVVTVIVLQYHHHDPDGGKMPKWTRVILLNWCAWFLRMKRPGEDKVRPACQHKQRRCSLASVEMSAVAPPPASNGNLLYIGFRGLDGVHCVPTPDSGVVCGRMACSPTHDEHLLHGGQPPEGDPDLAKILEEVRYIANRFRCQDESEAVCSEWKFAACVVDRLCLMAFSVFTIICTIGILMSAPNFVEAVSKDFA
Description: In this example the positive modulation of wild-type nAChR α7 receptors by Compounds 3, 7 and 8, representative of the invention, was determined using nAChR a7 receptors heterologously expressed in Xenopus laevis oocytes.
The electrical current through the nAChR α7 channel was measured using conventional two-electrode voltage clamp and nAChR α7 currents were activated by applying pulses of agonist-containing solution onto the nAChR α7 expressing oocyte.
In brief, the oocytes were placed in a recording chambers and continuously super-fused with an Oocyte Ringer (OR) solution containing 90 mM NaCl, 2.5 mM KCl, 2.5 mM CaCl2, 1 mM MgCl2 and 5 mM HEPES (pH adjusted to 7.4). The oocytes were clamped at −60 mV and currents were induced by applying 20 s pulses of 100 μM acetylcholine dissolved in OR. The intervals between the acetylcholine applications were 5 minutes, during which the oocytes were washed with OR. The first three applications were control applications to insure a constant response level of 100 μM acetylcholine. For the subsequent test applications, increasing concentrations (0.01-31.6 μM) of the test compound were applied 30 s before and during the acetylcholine (100 μM) application, which caused a robust increase in the acetylcholine-induced current amplitude.
The positive modulation in the presence of Compound 4 was calculated as (test-control)/control×100% and the concentration response curve for this positive modulation was fitted to the sigmoidal logistic equation: I=Imax/(1+(EC50/[compound])^n), where Imax represents the maximal modulation of the control response, EC50 is the concentration causing a half maximal response, and n is the slope coefficient.

| Compound | melting point | Emax [1] | EC50 [1] |
| --- | --- | --- | --- |
| COc1ccc(-c2nnn(-c3ccc(C(F)(F)F)cc3F)c2C)cc1 [Compound 1, 1-(2-Fluoro-4-trifluoromethyl-phenyl)-4-(4-methoxy-phenyl)-5-methyl-1H-[1,2,3]triazole] | 96.5 to 98.9 °C | – | – |
| Cc1c(-c2ccc(O)cc2)nnn1-c1ccc(C(F)(F)F)cc1Cl [Compound 3, 4-[1-(2-Chloro-4-trifluoromethyl-phenyl)-5-methyl-1H-[1,2,3]triazol-4-yl]-phenol] | – | 119% | 14 µM |
| COc1ccc(-c2nnn(-c3ccc(C(F)(F)F)cc3Cl)c2CO)cc1 [Compound 7, [3-(2-Chloro-4-trifluoromethyl-phenyl)-5-(4-methoxy-phenyl)-3H-[1,2,3]triazol-4-yl]-methanol] | – | 128% | 17 µM |
| OCc1c(-c2ccc(O)cc2)nnn1-c1ccc(C(F)(F)F)cc1Cl [Compound 8, 4-[1-(2-Chloro-4-trifluoromethyl-phenyl)-5-hydroxymethyl-1H-[1,2,3]triazol-4-yl]-phenol] | – | 136% | 11 µM |
